Values of other authors as cited in patent publication US20070275941A1, “SALT SENSITIVITY AND PREVENTION OF HYPERTENSION WITH DROSPIRENONE” (priority 2006, published 2007).

Tested on: postmenopausal women with hypertension

**Q.** For C[C@]12CCC(=O)C=C1[C@@H]1C[C@@H]1[C@H]1[C@@H]3[C@@H]4C[C@@H]4[C@@]4(CCC(=O)O4)[C@@]3(C)CC[C@@H]12 [drospirenone], which potassium sparing effect (clinical studies) is on record?
**A.** demonstrated a potassium sparing effect

**Q.** What about the blood pressure reduction (postmenopausal women with hypertension, alone or in combination with other agents) of the same compound?
**A.** consistently and substantially reduce blood pressure
